Reference: paper PMC6744417, “ALKBH overexpression in head and neck cancer: potential target for novel anticancer therapy” (Scientific Reports, 2019)
Like-named read-outs stand apart in the source and are kept apart here.

Assays:
EcAlkB = biological target: T1, EcAlkB (Escherichia coli, UniProt P05050); assay: In vitro inhibition assay of demethylation activity (HPLC), AlkB; type: biochemical
T1 construct: made in house
Description: (§1) For EcAlkB, ALKBH3, and FTO, the inhibitory effect was further quantified by measuring inhibition of demethylation activity in vitro (Fig. 6D). […]. The reactions were carried out for 30 min at 37 °C in 20 µl of 50 mM Tris-HCl pH 7.5 with 1 mM DTT, 100 µM Fe(NH4)2(SO4)2, 50 µM 2OG, and 100 nM of AlkB or ALKBH3, 25 µM of substrate, and different concentrations of indicated inhibitors. […]. Modified and unmodified (repaired) products were separated and analyzed on Knauer HPLC system with C18 column (Waters NovaPak). The mobile phase binding buffer (20 mM TEAA) and elution buffer (acetonitrile) were mixed and flown at a rate of 1 ml/min. The detection wavelength was 260 nm.

ALKBH3 [1] = biological target: T2, ALKBH3 (Homo sapiens, UniProt Q96Q83); assay: In vitro inhibition assay of demethylation activity (HPLC), ALKBH3; type: biochemical
T2 construct: made in house
T2 sequence (Q96Q83 1-286): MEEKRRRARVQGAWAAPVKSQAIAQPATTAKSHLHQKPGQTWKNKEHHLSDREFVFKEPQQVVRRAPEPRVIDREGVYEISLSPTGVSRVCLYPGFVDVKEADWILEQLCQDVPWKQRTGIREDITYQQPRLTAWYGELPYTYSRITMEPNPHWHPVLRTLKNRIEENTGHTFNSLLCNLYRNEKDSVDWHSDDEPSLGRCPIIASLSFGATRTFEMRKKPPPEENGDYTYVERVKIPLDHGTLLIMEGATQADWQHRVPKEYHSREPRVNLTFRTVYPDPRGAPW
Description: as §1

FTO [2] = biological target: T3, FTO (Homo sapiens, UniProt Q9C0B1); assay: FTO N6meA demethylation Chemiluminescent Assay Kit; type: biochemical; conditions: FTO 330 nM; N6meA on RNA; read-out: IC50 (Enzyme: FTO 330nM; Substrate: N6meA)
T3 construct: His; made in house; host or cells: E. coli BL-21
Description: To measure the activity of obtained by us FTO protein, Chemiluminescent Assay Kit was used (BPS Bioscience). As a substrate, we used N^6meA modification on RNA. The reactions were carried out according to the manufacturer’s protocol. Chemiluminescence was measured using the plate reader Synergy HT (Bio Tek) with 1 sec of integration time and 100 ms of delay after plate movement.

FTO [3] = biological target: T3, FTO; assay: Thermal shift assay for ligand binding, FTO holo form; conditions: FTO holo form (2OG, Mn2+), 5 µM compound; holo form alone 52.8 ± 0.6 °C
Description: (§2) We tested the affinity of our newly synthesized anthraquinones, 7-chloroemodin and 5,7-dichloroemodin, (Fig. S13) for ALKBH3 and FTO and assessed their effect on the enzymatic activity of targeted proteins using the thermal shift assay (TSA). The thermodynamic parameters for thermal denaturation of both proteins were measured for their holo forms, in the presence of 2OG and Mn^2+, an analogue of Fe^2+.
(§3) The assay was developed previously to monitor ligand binding to AlkB[36]. Fluorescence experiments were performed using a Varian Cary Eclipse spectrofluorimeter. Emission was monitored at 345 nm (excitation at 280 nm) over a temperature range of 40-95 °C with heating rate of 1 °C/min. The protein samples were dissolved in HEPES buffer at pH 7.5 with 2 mM dithiotreitol (DTT) and 150 mM NaCl to a final concentration of 1.2 µM. The process of thermal unfolding was performed at a concentration of 5 µM of the tested compound, either in the presence or absence of cofactors (50 µM 2OG and 100 µM Mn(II)). The thermal unfolding of the holo form of the protein was always monitored and further used as the reference. All the calculations were performed using Origin 9.0 software, assuming the simplest model of two-state (Folded-Unfolded) transition.

ALKBH3 [4] = biological target: T2, ALKBH3; assay: Thermal shift assay for ligand binding, ALKBH3 holo form; conditions: ALKBH3 holo form (2OG, Mn2+), 5 µM compound; result in words
Description: as §2, §3

EUFA30 cells [5] = assay: Alamar Blue viability assay, EUFA30; type: cell-based, human; conditions: normal fibroblast cells, 48 h of treatment
Description: (§4) Exponentially growing cells at the density of 3 × 10^3 cells/well were seeded onto a 96-well plate, cultured for 18 h followed by the respective treatment of antraquinones or its derivatives in various concentrations or 34 nM RNA interference of ALKBH proteins, and then cultured for a an additional 48 h. Alamar Blue (Invitrogen) viability assay was performed according to manufacturer’s protocol: after 4 h incubation, emission at 590 nm was measured with excitation at 560 nm using a scanning multiwall multimode spectrophotometer (DTX 880, Beckman Coulter). The experiment was carried out at least three times, with three replicates for each inhibitor concentration. After background subtraction, inhibition rates, IC50, values were calculated as the concentration of the component that inhibits cell growth by 50%. All the calculations were done using Origin 9.0 software.

HeLa cells [6] = assay: Alamar Blue viability assay, HeLa; type: cell-based, human; conditions: 48 h of treatment
Description: (§5) Alamar Blue (Invitrogen) viability assay was performed according to manufacturer’s protocol: after 4 h incubation, emission at 590 nm was measured with excitation at 560 nm using a scanning multiwall multimode spectrophotometer (DTX 880, Beckman Coulter). The experiment was carried out at least three times, with three replicates for each inhibitor concentration. […] All the calculations were done using Origin 9.0 software.

HEK293 cells = assay: Alamar Blue viability assay, HEK293; type: cell-based, human; conditions: 48 h of treatment
Description: as §5

U87 cells [7] = assay: Alamar Blue viability assay, U87; type: cell-based, human; conditions: 48 h of treatment
Description: as §4

BICR18 cells = assay: Alamar Blue viability assay, BICR18; type: cell-based, human; conditions: 48 h of treatment
Description: as §5

HeLa cells [8] = assay: Flow cytometry Annexin V-FITC / propidium iodide, HeLa; type: cell-based, human; conditions: 48 h, untreated control 10.8%
Description: (§6) Silencing was performed using the lipofectamine RNAiMAX reagent (Invitrogen) and ready-to-use siRNA mixture (Santa Cruz Biotechnology) composed of at least two different siRNAs targeting the same gene, to knock down ALKBH1, 2, 3, 4, 5, 8, and FTO (Supplementary Table 2). 1 × 10^6 cells were seeded onto a 100 mm diameter dishes. After 24 h of incubation, siRNAs mixtures (with lipofectamine, in OPTI-MEM medium) were added. After 48 h, cells were collected for WB or flow cytometry analysis. For WB analysis, adherent cells were rinsed three times with PBS, scraped, and centrifuged (800 x g, 10 min, 4 °C). Next, cells were re-suspended in 100 μL RIPA buffer with a 1 x mammalian protease inhibitor cocktail (Sigma-Aldrich). The resulting lysates were spun down at 30 130 x g to remove insoluble particles, assayed for protein content using the Bradford assay, and loaded onto the SDS-PAGE at the protein amount of 20 μg per line. The strength of WB signals corresponding to the particular ALKBHs were calculated by densitometry. The expression changes by 30% were considered as significant.
(§7) The Annexin V-FITC apoptosis detection kit (ApoAlert Annexin V-FITC Apoptosis Kit, TaKaRa) was used to detect apoptosis by flow cytometry. Cells were seeded at 6-well plates at concentration of 5 × 10^5 cells/well, cultured for 18 h, and then the tested agent was applied for the indicated periods. Afterward, cells were washed with PBS, resuspended in binding buffer, and anti-Annexin V FITC-conjugated antibody and propidium iodide were added to 100 µl aliquots. The mixtures were incubated for 15 min at room temperature, supplemented with binding buffer to 500 µl, and processed using BD FACSCalibur (BD Biosciences). Data were analyzed in Flowing Software version 2.5.1 (Flowing Software, http://www.uskonaskel.fi/flowingsoftware).

HeLa cells [9] = tested on: HeLa cells; parameters: method as in ref 32 (Varela-Ramirez and co-workers 2011); conditions: ref 32 (Varela-Ramirez and co-workers 2011); cited from earlier work
EUFA30 cells [10] = assay: Flow cytometry Annexin V-FITC / propidium iodide, EUFA30; type: cell-based, human; conditions: EUFA30, 500 μM, 48 h
Description: as §6, §7

ALKBH3 [11] = tested on: ALKBH3; parameters: method as in ref 14 (Li and co-workers 2016); conditions: ref 14 (Li and co-workers 2016); read-out: IC50 against ALKBH3; cited from earlier work
U87 cells [12] = tested on: U87 cells; parameters: method as in ref 14 (Li and co-workers 2016); conditions: ref 14 (Li and co-workers 2016); cited from earlier work
[13] = EcAlkB 100 nM, 3meC on TT(3meC)TT pentamer, 30 min 37 °C, read-out: IC50 (Enzyme: EcAlkB 100nM; Substrate: 3meC)
[14] = ALKBH3 100 nM, 3meC on TT(3meC)TT pentamer, 30 min 37 °C, read-out: IC50 (Enzyme: ALKBH3 100nM; Substrate: 3meC)

T1 sequence (P05050 whole entry): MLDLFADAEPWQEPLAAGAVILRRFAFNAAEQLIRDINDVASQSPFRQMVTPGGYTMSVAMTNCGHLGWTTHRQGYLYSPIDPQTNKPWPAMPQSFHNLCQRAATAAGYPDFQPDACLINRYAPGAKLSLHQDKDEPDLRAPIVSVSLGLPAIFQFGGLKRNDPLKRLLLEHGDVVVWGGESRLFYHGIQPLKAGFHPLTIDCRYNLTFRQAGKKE
T3 sequence (Q9C0B1 whole entry): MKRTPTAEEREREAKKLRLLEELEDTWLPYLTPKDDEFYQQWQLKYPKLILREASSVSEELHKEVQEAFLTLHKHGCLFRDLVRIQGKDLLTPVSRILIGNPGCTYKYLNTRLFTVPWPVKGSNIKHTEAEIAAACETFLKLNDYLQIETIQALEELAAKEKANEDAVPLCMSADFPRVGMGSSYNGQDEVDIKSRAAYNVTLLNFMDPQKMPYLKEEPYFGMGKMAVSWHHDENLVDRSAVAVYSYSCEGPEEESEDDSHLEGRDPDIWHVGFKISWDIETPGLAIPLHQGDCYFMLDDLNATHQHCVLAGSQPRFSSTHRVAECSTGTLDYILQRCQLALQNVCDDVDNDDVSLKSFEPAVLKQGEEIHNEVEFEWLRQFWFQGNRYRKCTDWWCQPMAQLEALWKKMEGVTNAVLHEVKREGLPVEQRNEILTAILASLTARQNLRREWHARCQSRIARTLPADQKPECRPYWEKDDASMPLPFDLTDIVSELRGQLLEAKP

Compound	IC50 (EcAlkB; [13]) [µM]	IC50 (ALKBH3 [1]; [14]) [nM]	IC50 (FTO [2]) [µM]	binding to ALKBH3 judged by increase of melting temperature (ALKBH3 [4])	IC50 (EcAlkB) [µM]	IC50 (EUFA30 cells [5]; Homo sapiens) [µM]	IC50 (HeLa cells [6]; Homo sapiens, HeLa) [µM]	IC50 (HEK293 cells; Homo sapiens, HEK293) [µM]	IC50 (U87 cells [7]; Homo sapiens, U-87 MG) [µM]	IC50 (BICR18 cells; Homo sapiens) [µM]	further results
Cc1c(Cl)c(O)c2c(c1Cl)C(=O)c1cc(O)cc(O)c1C2=O [5,7-Dichloroemodin]	16.4	176000 ± 6000	42.1 ± 6.5	slightly more weakly							melting temperature of FTO-ligand complex (FTO [3]): 67.4 ± 0.1 °C; IC50 (EUFA30 cells [5]): 102 µM; IC50 (HeLa cells [6]): 10.6 µM; IC50 (HEK293 cells): 87.3 µM; IC50 (U87 cells [7]): 158 µM; IC50 (BICR18 cells): 39.8 µM; number of necrotic HeLa cells (HeLa cells [8]; 25 μM): 69.2%; number of necrotic HeLa cells (HeLa cells [8]; 100 μM): 83.1%
Cc1cc2c(c(O)c1Cl)C(=O)c1c(O)cc(O)cc1C2=O [7-Chloroemodin]	19.8	116000 ± 7000	28.1								melting temperature of FTO-ligand complex (FTO [3]): 71.5 ± 0.2 °C; IC50 (EUFA30 cells [5]): 163 µM; IC50 (HeLa cells [6]): 33.8 µM; IC50 (HEK293 cells): 180 µM; IC50 (U87 cells [7]): 120 µM; IC50 (BICR18 cells): 99.5 µM; number of necrotic HeLa cells (HeLa cells [8]; 25 μM): 18.8%; number of necrotic HeLa cells (HeLa cells [8]; 100 μM): 37.6%
O=C1c2cccc(O)c2C(=O)c2c(O)cc(CO)cc21 [Aloe-Emodin]		8800	52 ± 12.6	slightly more weakly	230 ± 100	380	26	> 1000	> 1000	57.5	cytotoxicity against HEK293 (HEK293 cells): not cytotoxic; cytotoxicity against U87 (U87 cells [7]): not cytotoxic
Cc1c(C(=O)O)c(O)cc2c1C(=O)c1c(O)c([C@@H]3O[C@H](CO)[C@@H](O)[C@H](O)[C@H]3O)c(O)c(O)c1C2=O [Carminic Acid, Carminic acid]	170 ± 70	111000 ± 7000	25.3 ± 2.2			311	387	219	258	305	
[CH3][Sn]([Cl])([c]1ccccc1)[c]1ccccc1 [DPMT, diphenylmethyltin chloride]											necrosis on HeLa cells (HeLa cells [9]): more than 40 % of cells
Cc1cc(O)c2c(c1)C(=O)c1cc(O)cc(O)c1C2=O [Emodin]		540000 ± 160000	49.4 ± 19	slightly more weakly	520 ± 100	138	110		42.7	81.1	
O=C(O)c1cc(O)c2c(c1)C(=O)c1cccc(O)c1C2=O [Rhein]				strongest ligand	20.5	423	126	157	> 1000	89.4	IC50 (ALKBH3 [1]; as printed in text in nM, 3meC substrate, read-out: IC50 against ALKBH3): 40 nM; increase of early apoptosis stage compared to untreated control (EUFA30 cells [10]): approximately 2 fold; increase of late apoptosis compared to untreated control (EUFA30 cells [10]): 15 fold; increase of necrosis compared to untreated control (EUFA30 cells [10]): 11 fold; IC50 (ALKBH3 [11]): 5.3 µM; cytotoxic effect against U87 cells (U87 cells [12]): did not found any cytotoxic effect
